Literature values, collected in patent publication US7060463B2 (priority 2001, dated 2006).

Molecular target: GST-Flag-rhARLBD (Macaca mulatta, UniProt Q6QT55)
Sequence (Q6QT55 601-895): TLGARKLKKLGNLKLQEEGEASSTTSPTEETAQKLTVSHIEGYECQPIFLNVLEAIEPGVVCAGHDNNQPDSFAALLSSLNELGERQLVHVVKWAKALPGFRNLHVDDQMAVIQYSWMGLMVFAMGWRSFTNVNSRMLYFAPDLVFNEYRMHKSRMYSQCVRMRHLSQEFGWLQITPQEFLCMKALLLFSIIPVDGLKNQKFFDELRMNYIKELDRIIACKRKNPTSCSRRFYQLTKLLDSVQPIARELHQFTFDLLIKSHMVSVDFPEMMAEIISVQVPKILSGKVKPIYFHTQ

For C[C@]1(O)CC[C@H]2[C@@H]3CCC4=CC(=O)CCC4=C3C=C[C@@]21C [R1881, 17b-hydroxy-17-methylestra-4,9,11-trien-3-one], the IC50 is listed as ~1 nM.
